Experimental data as given in paper PMC9841533, “Microtubule-Stabilizing 1,2,4-Triazolo[1,5-a]pyrimidines as Candidate Therapeutics for Neurodegenerative Disease: Matched Molecular Pair Analyses and Computational Studies Reveal New Structure–Activity Insights” (Journal of Medicinal Chemistry, 2022).

How the values were obtained:
[1] = system: AcTub levels in OA-treated primary mouse cortical neurons; assay: Okadaic acid (OA) assay, AcTub ELISA in primary mouse cortical neurons; format: cell-based; conditions: OA 15 nM, 8 h, compound 1 and 10 μM
Protocol: To further evaluate the activity of Class I alkyne derivatives and hybrid compounds, several compounds were also assessed for their ability to compensate for MT deficits in primary neuron cultures that were treated with the phosphatase inhibitor, okadaic acid (OA). As previously described,[11] treatment of rodent neurons with OA results in tau hyperphosphorylation and MT collapse that presumably results, at least in part, from tau disengagement from MTs. Co-treatment of neurons with Class I TPDs, such as 1, along with OA prevents this MT collapse, with a resulting normalization of MT structure and neuronal processes which can be observed upon visual inspection of the neurons or through an assessment of neuronal AcTub levels, while Class II TPDs are generally unable to provide meaningful compensation of MT deficits, especially when tested at higher (i.e., 10 μM) compound concentration.[11],[12]
Figure 4 ELISA determination of AcTub levels in homogenates from primary rat cortical neurons treated with either vehicle, or OA (15 nM) in the presence of vehicle or TPD 1, 8, 9 (A); and primary mouse cortical neurons treated with vehicle, or OA (15 nM) in the presence of vehicle or TPD 1, 24, 45, 46, 53, 54 (B). Error bars represent SEM, with ***, p < 0.001 relative to vehicle treatment in the absence of OA as determined by one-way ANOVA.
Compound-induced changes in acetylated-tubulin and α-tubulin in QBI293 cells or primary mouse or rat neurons were as previously described.[11],[12] For compound testing, QBI293 cells were plated at a density of 2 × 10^5 cells/well in 12-well plates. The plated cells were incubated overnight, after which the medium was aspirated and fresh medium containing vehicle (0.25–0.3% DMSO) or test compound was added. Test compounds were prepared as 4–20 mM stock solutions in 100% DMSO, and these were diluted in culture medium prior to addition to the QBI293 cells. After 4 h incubation, whole-cell extracts were prepared from the QBI293 cells as described[11] and the supernatant fraction from each sample was assessed for protein content by bicinchoninic acid (BCA) assay. The amount of acetyl-tubulin (AcTub) and α-tubulin (αTub) within the cell extract samples was quantified using specific enzyme-linked immunosorbent assays (ELISA), as previously described.[11] Acetyl-tubulin levels were determined in a similar manner in rat or mouse cortical neuron cultures in which embryonic dissociated cortical neurons were plated at 3 × 10^5 cells/well in poly-D-lysine-coated 12-well plates, essentially as previously described.[11] The neurons were allowed to grow for 10 days before they were treated for 8 h with 15 nM okadaic acid in the presence or absence of test compound prepared as described above, or vehicle (0.25% DMSO). Culture homogenates were prepared for the determination of AcTub levels by ELISA as previously described.[11]
VehicleVehicleVehicleVehicle25 (1 µM)
Figure S2. Assessment of AcTub levels in primary mouse cortical neurons treated with vehicle,
(§1) (1 picture or pasted object on this page, not shown here)

[2] = system: de-tyrosinated α-tubulin (GluTub) in brain of WT mice; assay: Brain PD: Glu-tubulin in brain tissue after compound treatment; format: in vivo, mouse; conditions: WT CD-1 mice, 1 mg/kg i.p. once daily for two consecutive days
Protocol: Finally, to evaluate target engagement in the CNS, PD studies were conducted to determine compound-dependent elevations in the stable MT marker, de-tyrosinated α-tubulin (GluTub), in brain homogenates from compound-treated WT mice.
All animal protocols were approved by the University of Pennsylvania Institutional Animal Care and Use Committee (IACUC). […] Compounds were diluted from 20 or 40 mM DMSO stock solutions into 30% Kolliphor EL (Sigma-Aldrich) phosphate-buffered saline, pH 7.4. After 4 h following the second injection, mice were euthanized and cortices and hippocampi were isolated from each brain and placed in 0.2 mL of ice-cold radioimmunoprecipitation assay (RIPA) buffer (50 mM Tris, 150 mM NaCl, 5 mM EDTA, 0.5% sodium deoxycholate, 1% NP-40, 0.1% sodium dodecyl sulfate (SDS), pH 8.0) containing protease inhibitor (PI) cocktail (Sigma-Aldrich), 1 mM phenylmethylsulfonyl fluoride (PMSF) (Sigma-Aldrich), and 3 μM trichostatin A (TSA) (Sigma-Aldrich). The brain samples were homogenized with a handheld battery-operated mixer and subsequently sonicated. After centrifugation at 100,000g for 30 min at 4 °C, supernatant samples were transferred to a new tube and the pellets were resuspended in 0.15 mL of RIPA buffer and again homogenized, sonicated, and centrifuged. The supernatant from the second centrifugation was pooled with that from the first. The combined supernatant samples were assessed for protein concentration using a BCA assay (Thermo Fisher Scientific), and equal protein amounts from each brain sample underwent separation by 10% sodium dodecyl sulfate polyacrylamide gel electrophoresis (SDS-PAGE) followed by transfer onto nitrocellulose membranes essentially as previously described.[11] […] Incubation with infrared dye-conjugated secondary antibodies and subsequent imaging and quantification of the blots on the Odyssey imaging system were as described.[11]

[3] = Resazurin cell viability assay, HeLa; format: cell-based; conditions: human, HeLa cells, three biological replicates, read-out: HeLa CC50 ± SD
Protocol: Cell Culture. QBI293 and HeLa cells were cultured in DMEM supplemented with 10% heat-
inactivated FBS and 1% penicillin-streptomycin. Cells were grown in T175 cell culture flasks maintained
at 37 ℃ in 5% CO2 and sub-c ultured when at 60-8 0% cell confluence.
Resazurin Cell Viability Assay. Cytotoxicity in QBI293 and HeLa cells was measured using the
resazurin cell viability assay.1 Test compounds were serially diluted in DMSO and added to 96-well
polystyrene assay plates to give final assay concentrations ranging from 100 nM to 4000 nM (1 µL; 1%
total DMSO). Fresh medium was added to the assay plate (49 µL/well). QBI293 or HeLa cells were
cells/well. Assay plates were incubated at 37 °C and 5% CO2 for 48 h, followed by addition of 20 µL 0.5
mM resazurin (Alfa Aesar, Cat. B21187) in PBS to each well. Assay plates were incubated in the dark for
as §1
4 h at 37 °C. Fluorescence was measured at 531 nm and 595 nm excitation and emission wavelengths,
respectively, using a 2104 EnVision® multilabel plate reader. The viability of each well was normalized to
positive and negative controls in each assay plate. Dose-response curves were generated and CC50 values
calculated with GraphPad Prism, version 9.3 (San Diego, CA) using a sigmoidal four parameter logistic
curve. The means ± standard deviations from three biological replicates are shown.
(1) O'Brien, J.; Wilson, I.; Orton, T.; Pognan, F. Investigation of the Alamar Blue (resazurin) fluorescent
dye for the assessment of mammalian cell cytotoxicity. Eur. J. Biochem. 2000, 267 (17), 5421-5426.

## C[C@@H](Nc1c(-c2c(F)cc(C#CCCO)cc2F)c(Cl)nc2ncnn12)C(C)(C)C [Compound 53, (R)-4-(4-(5-Chloro-7-((3,3-dimethylbutan-2-yl)amino)-[1,2,4]triazolo[1,5-a]pyrimidin-6-yl)-3,5-difluorophenyl)but-3-yn-1-ol]
[1]
  prevention/correction of OA-induced MT collapse (AcTub levels): can prevent the OA-induced MT collapse
[2]
  brain GluTub (GluTub-to-total α-Tub ratio) relative to vehicle-treated mice: significant elevations in brain GluTub
[3]
  CC50 at 48 h: 30.8 ± 4.7 nM
